Measured values as given in patent US20250092065A1, “2-(INDAZOL-5-YL)-6-(PIPERIDIN-4-YL)-1,7-NAPHTHYRIDINE DERIVATIVES AND RELATED COMPOUNDS AS MODULATORS FOR SPLICING NUCLEIC ACIDS AND FOR THE TREATMENT OF PROLIFERATIVE DISEASES” (REMIX THERAPEUTICS INC., priority 2022, published 2025).
Read-outs that look alike come from different tables or passages of the source.

How the values were obtained:
HTT mRNA = assay: RT-qPCR splicing assay, HTT mRNA canonical (CJ) and alternative (AJ) junction; assay type: cell-based, human; conditions: Homo sapiens; for AC50: HTT alternative junction mRNA, read-out: HTT AJ (increase in AJ mRNA, AC50)
How it was run: (§1)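 Splice switching quantified in compound-treated A673/K562 cells after 24 h exposure (top dose 10 uM, 3-fold steps, ≤0.25% DMSO), using CJ and AJ qPCR assays run at least in duplicate. RQ derived by 2^(−ΔΔCt), then percentage response.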

MYB mRNA = assay: RT-qPCR splicing assay, MYB mRNA canonical (CJ) and alternative (AJ) junction; assay type: cell-based, human; conditions: Homo sapiens; for AC50: MYB alternative junction mRNA, read-out: MYB AJ (increase in AJ mRNA, AC50)
How it was run: as §1

MYB = assay: HiBiT protein abundance assay, MYB (K562 HiBiT knock-in); assay type: cell-based, human; conditions: HiBiT knock-in K562 cells, 24 hours, top dose 10 μM
How it was run: (§2)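 Endogenously HiBiT-tagged K562 lines were treated for 24 h at 37 °C with 10-point 3-fold dilutions (top 10 μM final, DMSO ≤0.25%). Lytic LgBiT complementation luminescence was normalized between unmodified K562 (PC) and DMSO-treated tagged cells (NC); IC50 was interpolated at 50% from a four-parameter logistic fit.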

HTT = assay: HiBiT protein abundance assay, HTT (K562 HiBiT knock-in); assay type: cell-based, human; conditions: HiBiT knock-in K562 cells, 24 hours, top dose 10 μM
How it was run: as §2

K562 cells = assay: Cell Titer Glo 2.0 cell viability (toxicity) assay, K562; conditions: 500 cells/well, 72 hours
[1] = HTT canonical junction mRNA, RT-qPCR, read-out: HTT CJ (decrease in CJ mRNA levels, IC50)
[2] = canonical junction qPCR panel, Table 4, read-out: HTT IC50 (decrease in CJ mRNA levels)
[3] = MYB canonical junction mRNA, RT-qPCR, read-out: MYB CJ (decrease in CJ mRNA levels, IC50)
[4] = canonical junction qPCR panel, Table 4, read-out: MYB IC50 (decrease in CJ mRNA levels)

| Structure (SMILES) | IC50 (HTT mRNA; [1]) [nM] | IC50 (HTT mRNA; [2]) [nM] | IC50 (MYB mRNA; [3]) [nM] | IC50 (MYB mRNA; [4]) [nM] | IC50 (MYB) [nM] | IC50 (HTT) [nM] | AC50 (HTT mRNA; RT-qPCR) [nM] | AC50 (MYB mRNA; RT-qPCR) [nM] | Effect of Exemplary Compounds on Cell Viability, K562 (K562 cells) |
| --- | --- | --- | --- | --- | --- | --- | --- | --- | --- |
| Cc1c(O)c(-c2ccc3nc(N4CCC(NC5CCC5)C4)ccc3n2)cc2cn(C)nc12 (stereo not drawn) [Compound 288, 5-{6-[3-(cyclobutylamino)pyrrolidin-1-yl]-1,5-naphthyridin-2-yl}-2,7-dimethylindazol-6-ol] | < 100 | < 100 | < 100 | < 100 | < 100 | < 100 | < 100 | < 100 | B (B represents 100-1000 nM) |
| Cc1nc2c(F)c(O)c(-c3ccc4nc(N5CCC(NC6CCC6)C5)ccc4n3)cc2o1 (stereo not drawn) [Compound 293, 6-{6-[3-(cyclobutylamino)pyrrolidin-1-yl]-1,5-naphthyridin-2-yl}-4-fluoro-2-methyl-1,3-benzoxazol-5-ol] | < 100 | < 100 | < 100 | < 100 | < 100 | < 100 | < 100 | < 100 | A (A represents <100 nM) |
| Cc1c(O)c(-c2ccc3nc(N4CCC(NC5COC5)C4)ccc3n2)cc2cn(C)nc12 (stereo not drawn) [Compound 302, 2,7-dimethyl-5-{6-[3-(oxetan-3-ylamino)pyrrolidin-1-yl]-1,5-naphthyridin-2-yl}Indazol-6-ol] | 100 to 1000 | 100 to 1000 | 100 to 1000 | 100 to 1000 | 100 to 1000 | 100 to 1000 | 100 to 1000 | 100 to 1000 | C (C represents 1000-9999 nM) |
| Cc1nc2c(C)c(O)c(-c3ccc4nc(N5CCC(NC6(C)CC6)C5)ccc4n3)cc2o1 (stereo not drawn) [Compound 309, 2,4-dimethyl-6-(6-{3-[(1-methylcyclopropyl)amino]pyrrolidin-1-yl}-1,5-naphthyridin-2-yl)-1,3-benzoxazol-5-ol] | < 100 | < 100 | < 100 | < 100 | < 100 | < 100 | < 100 | < 100 | B (B represents 100-1000 nM) |

Further lines, with some results ahead:

| IC50 (HTT mRNA; [1]) [nM] | IC50 (HTT mRNA; [2]) [nM] | IC50 (MYB mRNA; [3]) [nM] | IC50 (MYB mRNA; [4]) [nM] | IC50 (MYB) [nM] | IC50 (HTT) [nM] | Structure (SMILES) | AC50 (HTT mRNA; RT-qPCR) [nM] | AC50 (MYB mRNA; RT-qPCR) [nM] | Effect of Exemplary Compounds on Cell Viability, K562 (K562 cells) |
| --- | --- | --- | --- | --- | --- | --- | --- | --- | --- |
| 1000 to 10000 | 1000 to 10000 | 1000 to 10000 | 1000 to 10000 | 1000 to 10000 | 1000 to 10000 | Cn1cc2cc(-c3ccc4nc(N5CCC(NC67CC(C6)C7)C5)ccc4n3)c(O)cc2n1 (stereo not drawn) [Compound 297, 5-[6-(3-{bicyclo[1.1.1]pentan-1-ylamino}pyrrolidin-1-yl)-1,5-naphthyridin-2-yl]-2-methylindazol-6-ol] | 1000 to 10000 | 100 to 1000 | D (D represents greater than 10 μM in K562 cells) |
| < 100 | < 100 | < 100 | < 100 | < 100 | < 100 | Cn1cc2nc(-c3ccc4nc(N5CCC(NC(C)(C)C)C5)ccc4n3)c(O)cc2n1 (stereo not drawn) [Compound 298, 5-{6-[3-(tert-butylamino)pyrrolidin-1-yl]-1,5-naphthyridin-2-yl}-2-methylpyrazolo[4,3-b]pyridin-6-ol] | < 100 | < 100 | B (B represents 100-1000 nM) |
| < 100 | < 100 | < 100 | < 100 | < 100 | < 100 | Cn1cc2cc(-c3ccc4nc(N5CC[C@H](N[C@H]6C[C@@H](F)C6)C5)ccc4n3)c(O)cc2n1 [Compound 299, 2-methyl-5-{6-[(3S)-3-{[(1s,3s)-3-fluorocyclobutyl]amino}pyrrolidin-1-yl]-1,5-naphthyridin-2-yl}indazol-6-ol] | 100 to 1000 | < 100 | B (B represents 100-1000 nM) |
